Experimental data taken from ChEMBL document CHEMBL1153043, “Synthesis and evaluation of 1-(benzo[b]thiophen-2-yl)ethanone analogues as novel anti-osteoporosis agents acting on BMP-2 promotor” (Bioorg Med Chem Lett, 2009).

Assay: Enhancement of BMP-2 expression in mouse MC3T3-E1 cells assessed as upregulation rate at 4 uM
Type: functional, cell-based

Row | Structure (SMILES) | Activity [%]
1 | CC(=O)c1cc2c(Cl)cccc2s1 | 27.9
2 | NC(=O)c1cc2ccccc2s1 | 11.2
3 | CC(=O)c1csc2ccccc12 | 11.9
4 | CC(=O)c1cc2c(Cl)c(C)ccc2s1 | 39.8
5 | CC(=O)c1cc2c(Cl)ccc(C)c2s1 | 32
6 | CC(=O)c1sc2cccc(Cl)c2c1C | 16.5
7 | COc1cc2cc(C(C)=O)sc2cc1OC | 37.1
8 | O=C(O)c1cc2ccccc2s1 | 10.8
9 | CC(=O)c1cc2cc(C(F)(F)F)ccc2s1 | 18.5
10 | COC(=O)c1cc2ccccc2s1 | 27.3
